Test results taken from patent US20240368122A1, “JAK2 INHIBITORS AND METHODS OF USE THEREOF” (RELAY THERAPEUTICS, INC., priority 2021, published 2024).
Where two headings read alike, the source gives them in different places.

Legend:
[1] = test system: TF1 JAK2 V617F STAT5 reporter; experiment: Cellular TF1 STAT5 assay (luciferase reporter), JAK2 V617F; format: cell-based; settings: read-out: Cell PD TF1 V617F STAT5 (IC50)
Method: (§1) Selected compounds of the present disclosure were tested in a Cellular TF1 STAT3 or STAT5 assay, to measure the degree of JAK2-mediated STAT3 or STAT5 phosphorylation, respectively. TF1 cells (immortalized erythroleukemia line) expressing either wildtype or V617F mutant JAK2 with a luciferase reporter were used.
(§2) Cell culture: Cells were put into antibiotic selection (1 ug/ml puro+500 ug/ml Geneticin) when first thawed then maintained in growth media without antibiotics. Cells were maintained in exponential growth phase, between 0.02-1 E6 cells/ml.
(§3) Compound preparation: Compounds were screened as 10-point dose response curves 1:3 dilutions. DMSO is used as the vehicle control. All wells were normalized to the same final DMSO concentration. Compounds were pre-spotted onto 384 well plates using an Echo acoustic dispenser, 50 nL of 1000× (10 mM top concentration) DMSO stock/well. Each compound is run in triplicate plates.
(§4) Cell plating: Cells were counted using Vi-Cell XR, then cells were spun down and resuspended in growth media to 200,000 cells/ml. Cells were added to plates containing compound. 10,000 cells/well in 50 ul volume using a Biomek liquid handler. Plates were briefly mixed on a shaker for 1 minute at 2500 rpm then placed in a 37° C., 5% CO2 incubator overnight for 18-20 hrs.
(§5) Measuring luciferase activity: ONE-glo reagent was brought to room temperature, and 25 μL of ONE-glo assay reagent was added to each well using Biomek liquid handler. The plates were incubated for 10 minutes at room temperature, then luminescence was measured on an Envision plate reader.

[2] = test system: TF1 JAK2 V617F STAT3 reporter; experiment: Cellular TF1 STAT3 assay (luciferase reporter), JAK2 V617F; format: cell-based; settings: read-out: Cell PD-TF1 JAK2 V617F STAT3 (IC50)
Method: as §1, §2, §3, §4, §5

[3] = molecular target: T1, JAK2 JH2 WT (V536-D812) [W659A, W777A, F794H solubilizing mutations] (Homo sapiens, UniProt O60674, F794H/W659A/W777A); experiment: Surface Plasmon Resonance (SPR) binding assay, JAK2 JH2 domain
T1 construct: **JAK2 JH2 WT (V536-D812) [W659A, W777A, F794H solubilizing mutations]; C-thrombin-avi-His6; thrombin cleavage site (C); His6 (C); purchased Biortus
Method: Selected compounds of the present disclosure were tested in a Surface Plasmon Resonance (SPR) Assay to measure their binding kinetics and affinity for proteins of interest.
Prepare buffer: 50 mM HEPES pH 7.5, 150 mM NaCl, 0.05% (v/v) Tween, and 10% (v/v) glycerol were combined and pH was adjusted to 7.5, then filtered. 5 mM DTT, was added, and buffer without DMSO was reserved for compound resuspension. 2% (v/v) DMSO was added for assay buffer, and separately 1% DMSO was used to make buffer for resuspending compounds.
Prepare compounds: Using a Bravo liquid handler, 99 μL of 1% (v/v) DMSO assay buffer was added to 1 μL compounds in DMSO.
Run 8K Method: Biotin CAPture (CAP) chip surface was regenerated prior to run by: Inserting CAP chip into Biacore 8K, prime machine with assay buffer with 2% (v/v) DMSO; Setting instrument temperature to 20° C.; Conditioning surface with NaOH/GdnHCl reagents from CAP chip kit (60 seconds, 10 μL/min); and Capturing oligo-Streptavidin (SA) reagent from CAP kit (600 seconds, 1 μL/min), expected capture ˜2500 RU. JAK2 JH1 or JH2 protein was immobilized by preparing a sample of 0.5 uM JH1 or 0.4 uM JH2 protein diluted in assay buffer without DMSO and supplemented with 10 uM of a selected compound of the invention as a stabilizer (370 seconds, 5 uL/min), expected capture ˜1000 RU. Remaining biotin sites on SA were blocked with 1 uM biotin (30 seconds, 20 uL/min), then equilibrated for 1800 seconds at 100 uL/min. Compounds being assayed were run in single cycle kinetics: 4 doses with a top concentration of 5 uM (JH1) or 500 nM (JH2), dilution factor of 3, at 20° C., for a contact time of 60 seconds, and a dissociation time of 300 seconds (JH1) or 1200 seconds (JH2), at a flow rate of 30 uL/min. The surface was completely regenerated after each compound is run, and JH1 or JH2 protein was immobilized fresh prior to each new compound. Data were fitted kinetically with 1:1 binding model using Biacore Insight Evaluation Software.

[4] = Homo sapiens, TF-1, TF1 cells, JAK2 V617F

T1 sequence (O60674 536-812 W659A/W777A/F794H): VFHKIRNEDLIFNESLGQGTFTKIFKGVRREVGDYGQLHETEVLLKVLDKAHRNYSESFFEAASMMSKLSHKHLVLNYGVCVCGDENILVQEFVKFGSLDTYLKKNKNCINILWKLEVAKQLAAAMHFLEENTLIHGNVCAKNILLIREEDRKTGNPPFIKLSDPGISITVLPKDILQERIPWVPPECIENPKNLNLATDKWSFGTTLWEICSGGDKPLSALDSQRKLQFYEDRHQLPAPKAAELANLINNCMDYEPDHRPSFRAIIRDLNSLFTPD

| SMILES | IC50 ([1]; TF1 JAK2 V617F) | IC50 ([2]; TF1 JAK2 V617F) | Kd ([3]; SPR, JAK2 JH2 domain) | IC50 [1, 4] | IC50 [2, 4] | Kd [3] |
| --- | --- | --- | --- | --- | --- | --- |
| CNC(=O)c1nnc(NC(=O)C2CC2)cc1Nc1cccc(-c2cnn(C3CN(Cc4nccs4)C3)c2)c1OC [Compound 122] | 50 to 500 nM | 50 to 500 nM | 0.01 to 10 nM |  |  |  |
| CNC(=O)c1nnc(NC(=O)C2CC2)cc1Nc1cccc(-c2cnn(C3CN(Cc4ccc(C#N)cn4)C3)c2)c1OC [Compound 249] |  |  |  | 5000 to 100000 nM | 5000 to 100000 nM | 10 to 50 nM |
| CNC(=O)c1nnc(NC(=O)C2CC2)cc1Nc1cccc(-c2cnn([C@@H]3CN(Cc4cccc(C#N)n4)[C@H]3C)c2)c1OC [Compound 310] |  |  |  | 500 to 5000 nM | 500 to 5000 nM | 0.01 to 10 nM |
| CNC(=O)c1nnc(NC(=O)C2CC2)cc1Nc1cccc(-c2cc(C3CN(Cc4cccc(C#N)n4)C3)nn2C)c1OC [Compound 191] | 5000 to 100000 nM | 5000 to 100000 nM | 10 to 50 nM |  |  |  |
| CNC(=O)c1nnc(NC(=O)C2CC2)cc1Nc1cccc(-c2ccc(C(=O)N(C)C[C@@H]3CCS(=O)(=O)C3)nc2)c1OC (single isomer, unassigned) [Compound 209] |  |  |  | 5000 to 100000 nM | 5000 to 100000 nM | 10 to 50 nM |
| CNC(=O)c1nnc(NC(=O)C2CC2)cc1Nc1cccc(-c2ccc(C3CN(Cc4ccccn4)C3)c(OC)c2)c1OC [Compound 359] |  |  |  | 500 to 5000 nM | 5000 to 100000 nM | 50 to 500 nM |
| CNC(=O)c1nnc(NC(=O)C2CC2)cc1Nc1ccc(C)c(-c2cnn(C3CN(Cc4ccccn4)C3)c2)c1OC [Compound 67] | 500 to 5000 nM | 500 to 5000 nM | 0.01 to 10 nM |  |  |  |
| CNC(=O)c1nnc(NC(=O)C2CC2)cc1Nc1cccc(-c2ccc(C(=O)N(C)Cc3cc(Cl)ccc3OC)nc2)c1OC [Compound 82] | 500 to 5000 nM | 500 to 5000 nM | 0.01 to 10 nM |  |  |  |
| CNC(=O)c1nnc(NC(=O)C2CC2)cc1Nc1cccc(-c2cn([C@@H]3CN(Cc4cccc(C)n4)[C@H]3C(OC)OC)nn2)c1OC (racemic) [Compound 247] |  |  |  | 500 to 5000 nM | 500 to 5000 nM | 0.01 to 10 nM |
| CNC(=O)c1nnc(NC(=O)C2CC2)cc1Nc1cccc(-c2ccc(C(=O)N3CCc4cccnc4C3)nc2)c1OC [Compound 108] | 5000 to 100000 nM | 5000 to 100000 nM | 10 to 50 nM |  |  |  |
| CNC(=O)c1nnc(NC(=O)C2CC2)cc1Nc1cccc(-c2ccc(C(=O)N(C)Cc3cc(C#N)n(C)n3)nc2)c1OC [Compound 71] | 50 to 500 nM | 50 to 500 nM | 0.01 to 10 nM |  |  |  |
| CNC(=O)c1nnc(NC(=O)C2CC2)cc1Nc1cccc(-c2cnn(C3CN([C@H](C)c4cccc(C#N)n4)C3)c2)c1OC (single isomer, unassigned) [Compound 283] |  |  |  | 500 to 5000 nM | 500 to 5000 nM | 0.01 to 10 nM |
| CNC(=O)c1nnc(NC(=O)C2CC2)cc1Nc1cccc(-c2ccc(C3CN(Cc4cccc(C#N)n4)C3)nc2)c1OC [Compound 266] |  |  |  | 500 to 5000 nM | 500 to 5000 nM | 0.01 to 10 nM |
| CNC(=O)c1nnc(NC(=O)C2CC2)cc1Nc1cccc(-c2cnn(C3CN(Cc4cscn4)C3)c2)c1OC [Compound 124] | 50 to 500 nM | 50 to 500 nM | 0.01 to 10 nM |  |  |  |
| COc1c(Nc2cc(NC(=O)C3CC3)nn3cc(C)nc23)cccc1-c1ccc(C(=O)N(C)Cc2cn(C)nc2C)nc1 [Compound 231] |  |  |  | 500 to 5000 nM | 500 to 5000 nM | 0.01 to 10 nM |
| CNC(=O)c1nnc(NC(=O)C2CC2)cc1Nc1cccc(-c2cnn(C3CN(Cc4cccnc4Cl)C3)c2)c1OC [Compound 169] | 50 to 500 nM | 50 to 500 nM | 0.01 to 10 nM |  |  |  |
| CNC(=O)c1nnc(NC(=O)C2CC2)cc1Nc1cccc(-c2ccc(C(=O)N(C)Cc3cc(C#N)ccn3)c(C(F)F)c2)c1OC [Compound 233] |  |  |  | 500 to 5000 nM | 500 to 5000 nM |  |
| CNC(=O)c1nnc(NC(=O)C2CC2)cc1Nc1cccc(-c2ccc(C(=O)N(C)C(C)c3cnn(C)c3)nc2)c1OC (centres unmarked) [Compound 46] |  |  | 0.01 to 10 nM |  |  |  |
| [2H]C([2H])([2H])N(Cc1cc(C#N)ccn1)C(=O)c1ncc(-c2c(C)ccc(Nc3cc(NC(=O)C4CC4)nnc3C(=O)NC)c2OC)cn1 [Compound 87] |  |  | 0.01 to 10 nM |  |  |  |
| CNC(=O)c1nnc(NC(=O)C2CC2)cc1Nc1nccc(-c2ccc(C(=O)N(C)Cc3ncc(COC)s3)nc2)c1OC [Compound 375] |  |  |  |  |  | 0.01 to 10 nM |
| CNC(=O)c1nnc(NC(=O)C2CC2)cc1Nc1cccc(-c2cnn(C3CN(Cc4nn(C)cc4C)C3)c2)c1OC [Compound 215] |  |  |  | 500 to 5000 nM | 500 to 5000 nM |  |

Continued, values first:

| IC50 ([1]; TF1 JAK2 V617F) | IC50 ([2]; TF1 JAK2 V617F) | Kd ([3]; SPR, JAK2 JH2 domain) | IC50 [1, 4] | IC50 [2, 4] | Kd [3] | SMILES |
| --- | --- | --- | --- | --- | --- | --- |
|  |  |  | 50 to 500 nM |  |  | CNC(=O)c1nnc(NC(=O)C2CC2)cc1Nc1cc(F)c(C)c(-c2ccc(C(=O)N(C)Cc3cc(S(C)(=O)=O)ccn3)nc2)c1OC [Compound 400] |
|  |  |  | 5000 to 100000 nM | 5000 to 100000 nM |  | COc1c(Nc2cc(NC(=O)C3CC3)nn3cc(C#N)nc23)ccc(C)c1-c1cnn(C2CN(Cc3ccccn3)C2)c1 [Compound 395] |
|  |  |  | 500 to 5000 nM | 5000 to 100000 nM |  | CNC(=O)c1nnc(NC(=O)C2CC2)cc1Nc1cccc(-c2ccc(C3CN(Cc4ccc(C(F)(F)F)cn4)C3)nc2)c1OC [Compound 387] |
|  |  |  | 500 to 5000 nM | 5000 to 100000 nM |  | CNC(=O)c1nnc(NC(=O)C2CC2)cc1Nc1cccc(-c2ccc(C3CN(Cc4ncc(OC)cc4Cl)C3)nc2)c1OC [Compound 386] |
|  |  |  | 50 to 500 nM |  |  | CNC(=O)c1nnc(NC(=O)C2CC2)cc1Nc1ccc(Cl)c(-c2ccc(C(=O)N(C)Cc3cc(S(C)(=O)=O)ccn3)nc2)c1OC [Compound 401] |
|  |  |  | 5000 to 100000 nM | 500 to 5000 nM |  | CNC(=O)c1nnc(NC(=O)C2CC2)cc1Nc1cccc(-c2cc(N3CC(Oc4ccccn4)C3)n(C)n2)c1OC [Compound 393] |
|  |  |  | 500 to 5000 nM |  |  | CNC(=O)c1nnc(NC(=O)C2CC2)cc1Nc1cccc(-c2ccc(C(=O)N(C)Cc3cc([S@+](C)[O-])ccn3)nc2)c1OC (single isomer, unassigned) [Compound 407] |
|  |  |  | 5000 to 100000 nM | 5000 to 100000 nM |  | COc1c(Nc2cc(NC(=O)C3CC3)nn3cc(C(N)=O)nc23)ccc(C)c1-c1cnn(C2CN(Cc3ccccn3)C2)c1 [Compound 392] |
|  |  |  |  |  | 50 to 500 nM | CNC(=O)c1nnc(NC(=O)C2CC2)cc1Nc1cccc(-c2ccc(C3CN(Cc4ccc(OC5CC5)cn4)C3)nc2)c1OC [Compound 390] |
|  |  |  | 50 to 500 nM |  |  | CNC(=O)c1nnc(NC(=O)C2CC2)cc1Nc1cccc(-c2cnn(C3CN(Cc4cccc([S@@+](C)[O-])n4)C3)c2)c1OC (single isomer, unassigned) [Compound 403] |
|  |  |  | 50 to 500 nM |  |  | CNC(=O)c1nnc(NC(=O)C2CC2)cc1Nc1cccc(-c2cnn(C3CN(Cc4cccc([S@+](C)[O-])n4)C3)c2)c1OC (single isomer, unassigned) [Compound 402] |
|  |  |  | 5000 to 100000 nM |  |  | COc1c(Nc2cc(NC(=O)C3CC3)nnc2-c2ncc[nH]2)cccc1-c1cnn(C2CN(Cc3ccccn3)C2)c1 [Compound 406] |
|  |  |  | 5000 to 100000 nM |  |  | CNC(=O)c1nnc(NC(=O)C2CC2)cc1Nc1cccc(-c2cc(N3CC(Cc4ccccn4)C3)n(C)n2)c1OC [Compound 404] |
|  |  |  | 50 to 500 nM |  |  | CNC(=O)c1nnc(NC(=O)C2CC2)cc1Nc1cccc(-c2ccc(C(=O)N(C)Cc3cc([S@@+](C)[O-])ccn3)nc2)c1OC (single isomer, unassigned) [Compound 405] |
